{
  "source": "patent US9937174B2",
  "about": "“Combinations of histone deacetylase inhibitors and bendamustine” (priority 2014, dated 2018)",
  "key": {"[1]": {"system": "Hut-78", "test": "cells", "type": "cell-based", "conditions": "Homo sapiens", "description": "(§1) Ricolinostat was administered to each cell line at various concentrations (0.01, 0.1, 1, 5, and 10 μM), and cell viability was measured at 24, 48, and 72 hours.\n(§2) Bendamustine was administered to each cell line at various concentrations (25, 50, 100, 200, and 300 μM), and cell viability was measured at 24 and 48 hours.\n(§3) The effect of the drugs on each cell line was determined, and the combination index (CI) was measured. A CI<1 means synergy; a CI=1 means an additive effect; and a CI>1 means antagonism."}, "[2]": {"system": "WSU-NHL", "test": "cells", "type": "cell-based", "conditions": "Homo sapiens", "description": "as §1, §2, §3"}, "[3]": {"system": "Jeko-1", "test": "cells", "type": "cell-based", "conditions": "Homo sapiens", "description": "as §1, §2, §3"}, "[4]": {"system": "lymphoma cell lines (WSU-NHL, Hut-78, Jeko-1)", "type": "cell-based", "conditions": "flow cytometry, 24-48 h", "description": "In FIG. 5A WSU-NHL cells were treated with either ricolinostat, bendamustine, or ricolinostat and bendamustine at the indicated concentrations. After 24 hours, the cells were fixed and stained with propidium iodide, and were analyzed by flow cytometry. […] This effect was enhanced by the combination with bendamustine (FIGS. 5C and 5D)."}, "[5]": {"system": "WSU-NHL, Hut-78 and Jeko-1 cells", "test": "Methylcellulose clonogenic assay", "type": "cell-based", "conditions": "24 h liquid culture, colonies counted after 10 days", "description": "FIG. 2D and FIG. 2E show effects of ricolinostat alone and in combination with bendamustine on clonogenic survival. WSU-NHL, Hut-78 and Jeko-1 cells were first incubated with ricolinostat alone (1, 5, 10 μM) (C) and subsequently in combination with bendamustine (D) in liquid culture for 24 h. Treated cells were incubated in methylcellulose and colonies consisting of more 50 cell were counted after 10 days. The relative percentage with respect to control cells are shown and represent the mean±SD of three separate experiments."}, "[6]": {"system": "Granta-519", "test": "cells", "type": "cell-based", "conditions": "Homo sapiens, MTT", "description": "as §1"}, "[7]": {"system": "reactive oxygen species (ROS)", "test": "ROS generation by flow cytometry and Trx1 western blot", "conditions": "24 h and 48 h"}, "[8]": {"system": "IL-10", "test": "IL-10 secretion by ELISA"}, "[9]": {"system": "lymphoma cell lines", "test": "cells", "type": "cell-based"}, "[10]": {"target": "T1, HDAC6 (Homo sapiens, UniProt Q9UBN7)", "T1 construct": "endogenous in cells; host or cells: WSU-NHL, Hut-78, Jeko-1 lymphoma cell lines", "T1 sequence (Q9UBN7 1-1215)": "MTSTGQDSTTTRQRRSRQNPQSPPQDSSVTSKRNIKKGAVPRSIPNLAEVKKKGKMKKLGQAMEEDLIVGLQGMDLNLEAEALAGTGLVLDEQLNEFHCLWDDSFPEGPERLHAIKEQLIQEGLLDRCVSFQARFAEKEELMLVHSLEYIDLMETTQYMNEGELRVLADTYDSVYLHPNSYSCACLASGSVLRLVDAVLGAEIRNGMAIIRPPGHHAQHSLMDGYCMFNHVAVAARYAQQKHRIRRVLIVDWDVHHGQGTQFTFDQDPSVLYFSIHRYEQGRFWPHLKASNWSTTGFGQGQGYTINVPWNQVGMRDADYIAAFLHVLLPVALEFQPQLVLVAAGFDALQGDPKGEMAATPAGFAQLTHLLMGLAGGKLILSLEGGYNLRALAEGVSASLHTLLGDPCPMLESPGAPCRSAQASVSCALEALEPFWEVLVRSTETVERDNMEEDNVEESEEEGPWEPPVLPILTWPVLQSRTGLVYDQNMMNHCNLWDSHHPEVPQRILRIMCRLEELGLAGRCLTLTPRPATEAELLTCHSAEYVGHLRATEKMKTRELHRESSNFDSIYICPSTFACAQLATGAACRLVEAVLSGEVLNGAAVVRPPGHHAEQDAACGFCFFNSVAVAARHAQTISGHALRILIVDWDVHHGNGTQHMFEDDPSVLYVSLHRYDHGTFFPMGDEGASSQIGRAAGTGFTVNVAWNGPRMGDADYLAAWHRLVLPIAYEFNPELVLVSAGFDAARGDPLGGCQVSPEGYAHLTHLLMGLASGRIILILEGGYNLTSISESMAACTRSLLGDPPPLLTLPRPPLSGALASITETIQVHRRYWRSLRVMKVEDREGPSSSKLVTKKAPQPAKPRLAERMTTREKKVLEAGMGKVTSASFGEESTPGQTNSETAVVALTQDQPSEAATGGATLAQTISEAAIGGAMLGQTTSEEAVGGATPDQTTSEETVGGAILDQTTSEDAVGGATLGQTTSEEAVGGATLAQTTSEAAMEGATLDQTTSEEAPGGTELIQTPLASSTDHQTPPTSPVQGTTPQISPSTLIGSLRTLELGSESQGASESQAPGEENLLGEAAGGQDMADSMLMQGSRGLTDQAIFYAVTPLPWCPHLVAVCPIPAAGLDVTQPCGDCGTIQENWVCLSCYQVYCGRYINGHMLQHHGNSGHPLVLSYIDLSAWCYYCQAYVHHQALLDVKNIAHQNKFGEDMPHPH", "test": "Western blot of HDAC6 and acetylated α-tubulin", "type": "cell-based", "conditions": "24 h", "text": "Tubulin was used to normalize protein loading."}, "[11]": {"system": "RL", "test": "MTT cell viability in RL cells", "type": "cell-based", "conditions": "Homo sapiens, 48 h", "description": "(§4) HDAC6 protein is expressed in all cell lines examined (FIG. 1A). Ricolinostat was administered to each cell line at various concentrations (0.01, 0.1, 1, 5, and 10 μM), and cell viability was measured at 24, 48, and 72 hours."}, "[12]": {"system": "Karpas-299", "test": "MTT cell viability in Karpas-299 cells", "type": "cell-based", "conditions": "Homo sapiens, Karpas-299, 48 h", "description": "as §4"}, "[13]": {"system": "lymphoma cell lines (WSU-NHL, Hut-78, Jeko-1)", "test": "Cell cycle analysis by flow cytometry", "conditions": "24 h"}, "[14]": {"system": "tubulin polymerization", "test": "Tubulin polymerization by α-tubulin staining and flow cytometry", "conditions": "24 hours, intensity of fluorescence"}},
  "note": "Like-named read-outs stand apart in the source and are kept apart here.",
  "data": [
    {"smiles": "O=C(CCCCCCNC(=O)c1cnc(N(c2ccccc2)c2ccccc2)nc1)NO", "note": "[ricolinostat, 2-(diphenylamino)-N-(7-(hydroxyamino)-7-oxoheptyl)pyrimidine-5-carboxamide]", "values": [
      {"measurement": "IC50", "setting": "[1]; HuT78, 48 h, Hut-78, 48 h, MTT, read-out: IC50", "result": 1.51, "unit": "µM"},
      {"measurement": "IC50", "setting": "[1]; HuT78, 48 h, Hut-78, 48 hours, MTT, read-out: IC50", "result": 1.5, "unit": "µM"},
      {"measurement": "IC50", "setting": "[2]; 24 h, MTT, read-out: IC50", "result": 8.65, "unit": "µM"},
      {"measurement": "IC50", "setting": "[2]; 48 h, MTT, read-out: IC50", "result": 1.97, "unit": "µM"},
      {"measurement": "IC50", "setting": "[3]; Jeko-1, 48 h, MTT, read-out: IC50", "result": 3.42, "unit": "µM"},
      {"measurement": "induction of apoptosis", "setting": "[4]", "result": "induced apoptosis in all cell lines examined in time- and dose dependent manner"},
      {"measurement": "clonogenic survival / colony formation", "setting": "[5]", "result": "reduced clonogenic survival in a dose dependent manner"},
      {"measurement": "IC50", "setting": "[6]; Granta-519, 24 h", "result": 64, "unit": "µM"},
      {"measurement": "IC50", "setting": "[6]; Granta-519, 48 h", "result": 20, "unit": "µM"},
      {"measurement": "ROS generation", "setting": "[7]", "result": "induced an increase of ROS production at 24 h, which further increased after 48 h"},
      {"measurement": "IL-10 secretion", "setting": "[8]", "result": "down-regulation of IL-10"},
      {"measurement": "IC50", "setting": "[9]; lymphoma cell lines, exposure 24-72 hours, read-out: IC50 values ranging", "result": "0.17 to 8.65", "unit": "µM"},
      {"measurement": "IC50", "setting": "[9]; panel of six lymphoma cell lines, 24 and 48 h, read-out: IC50 values ranging", "result": "1.51 to 64", "unit": "µM"},
      {"measurement": "HDAC6 expression and acetylation level of α-tubulin", "setting": "[10]", "result": "reduced HDAC6 expression and induced the acetylation level of α-tubulin"},
      {"measurement": "IC50", "setting": "[11]", "result": 3.37, "unit": "µM"},
      {"measurement": "IC50", "setting": "[12]", "result": 4.82, "unit": "µM"},
      {"measurement": "cell cycle distribution", "setting": "[13]", "result": "increase in the percentage of cells in the G0/G1 phase and a decrease in the G2/M phase"},
      {"measurement": "tubulin polymerization", "setting": "[14]", "result": "induced tubulin polymerization"}
    ]},
    {"smiles": "Cn1c(CCCC(=O)O)nc2cc(N(CCCl)CCCl)ccc21", "note": "[bendamustine, 4-[5-[Bis(2-chloroethyl)amino]-1-methylbenzimidazol-2-yl]butanoic acid]", "values": [
      {"measurement": "IC50", "setting": "[1]; HuT78, 24 h, read-out: IC50 at 24 hours", "result": 144, "unit": "µM"},
      {"measurement": "IC50", "setting": "[2]; 24 h, read-out: IC50 at 24 hours", "result": 168, "unit": "µM"},
      {"measurement": "IC50", "setting": "[3]; JeKo-1, 24 h, read-out: IC50 at 24 hours", "result": 127, "unit": "µM"},
      {"measurement": "IC50", "setting": "[9]; 24 h, read-out: range of IC50", "result": "127 to 168", "unit": "µM"}
    ]}
  ]
}
